30 compounds from patent US10752609B2, “GSK-3 inhibitors” (priority 2016, dated 2020) can be followed below.

Molecules are shown by their SMILES. Read-outs that look alike come from different tables or passages of the source.

One test relates to pTau. Put plainly: pTau assay (no method described). The test is classed as cell-based.
Another test has as its target GSK3α (Homo sapiens, UniProt P49840). The test can be described thus: GSK3α kinase assay (Caliper LabChip3000 mobility shift, fluoresceinated peptide substrate).
The next test concerns the target GSK3β (Homo sapiens, UniProt P49841). The test can be described thus: GSK3β kinase assay (Caliper LabChip3000 mobility shift, fluoresceinated peptide substrate). The test is classed as biochemical.
The mark [1] stands for this setting: 250 pM enzyme, 20 uM ATP, 1.5 uM peptide, 20 hours room temperature, first value of cell GSK3β/GSK3α, read-out: GSK3β (nM), IC50.

Sequence of GSK3α (P49840 whole entry, species assumed): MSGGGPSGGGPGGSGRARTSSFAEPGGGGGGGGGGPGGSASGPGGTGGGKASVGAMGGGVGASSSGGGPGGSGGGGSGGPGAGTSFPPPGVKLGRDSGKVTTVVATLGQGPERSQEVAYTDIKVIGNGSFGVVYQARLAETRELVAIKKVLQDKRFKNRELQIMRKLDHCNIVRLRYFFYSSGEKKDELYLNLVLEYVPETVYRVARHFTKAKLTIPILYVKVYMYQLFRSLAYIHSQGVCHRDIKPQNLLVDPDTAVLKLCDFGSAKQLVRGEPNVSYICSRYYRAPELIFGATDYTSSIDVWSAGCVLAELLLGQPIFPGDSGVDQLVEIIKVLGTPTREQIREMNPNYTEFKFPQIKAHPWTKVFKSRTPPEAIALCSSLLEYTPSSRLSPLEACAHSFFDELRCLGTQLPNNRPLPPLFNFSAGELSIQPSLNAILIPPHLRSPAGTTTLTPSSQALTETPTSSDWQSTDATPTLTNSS
Sequence of GSK3β (P49841 whole entry, species assumed): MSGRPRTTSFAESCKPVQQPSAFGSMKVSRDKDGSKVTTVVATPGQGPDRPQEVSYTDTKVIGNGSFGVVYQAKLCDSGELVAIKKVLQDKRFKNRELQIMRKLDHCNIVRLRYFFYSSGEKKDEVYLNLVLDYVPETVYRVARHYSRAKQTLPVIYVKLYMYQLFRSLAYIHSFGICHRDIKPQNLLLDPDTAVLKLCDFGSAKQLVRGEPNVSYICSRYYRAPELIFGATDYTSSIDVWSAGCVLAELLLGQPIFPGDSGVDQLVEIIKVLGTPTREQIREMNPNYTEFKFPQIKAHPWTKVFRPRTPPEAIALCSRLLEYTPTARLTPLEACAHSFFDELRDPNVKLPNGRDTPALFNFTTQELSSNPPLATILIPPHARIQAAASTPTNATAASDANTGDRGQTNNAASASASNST

As to `O=C(Nc1cncnc1)c1ccnc(Nc2ccccc2)n1` [Example 201, 2-(Phenylamino)-N-(pyrimidin-5-yl)pyrimidine-4-carboxamide], the IC50 with pTau came out at 4200 nM; at GSK3α, 45 nM; at GSK3β (setting [1]) it was 71 nM.
Take `O=C(Nc1cnccc1-c1ccccc1)c1ccnc(Nc2c(F)cc(Cl)cc2F)n1` [Example 30, 2-((4-Chloro-2,6-difluorophenyl)amino)-N-(4-phenylpyridin-3-yl)pyrimidine-4-carboxamide]: the figures for the IC50 in the test with pTau, at GSK3α and at GSK3β (setting [1]) were 350 nM, 1.8 nM and 3.9 nM, respectively.
For `O=C(Nc1cnccc1N1CCC(F)(F)CC1)c1ccnc(Nc2ccccc2)n1` [Example 3, N-(4-(4,4-Difluoropiperidin-1-yl)pyridin-3-yl)-2-(phenylamino)pyrimidine-4-carboxamide], in that order: 8.5 nM, 0.15 nM and 0.2 nM.
With `C[S+]([O-])c1ccc(Nc2nccc(C(=O)Nc3cnccc3-c3ccccc3)n2)cc1` (stereo not drawn) [Example 14, 2-((4-(Methylsulfinyl)phenyl)amino)-N-(4-phenylpyridin-3-yl)pyrimidine-4-carboxamide], the IC50 was 14 nM with pTau, 0.18 nM on GSK3α and 0.39 nM on GSK3β (setting [1]).
On to `CC(C)(C)CNc1nccc(C(=O)Nc2cncnc2N2CCOCC2)n1` [Example 204], for which the IC50 with pTau was 1100 nM; at GSK3α, 11 nM; on GSK3β (setting [1]), 13 nM.
For `O=C(Nc1cnccc1-c1ccccc1)c1ccnc(Nc2cnn(-c3cc(F)ccc3F)c2)n1` [Example 159, 2-((1-(2,5-Difluorophenyl)-1H-pyrazol-4-yl)amino)-N-(4-phenylpyridin-3-yl)pyrimidine-4-carboxamide], in that order: 390 nM, 1.9 nM and 7.2 nM.
As for `O=C(Nc1cncnc1N1CCOCC1)c1ccnc(NCC2CC2)n1` [Example 205, 2-((Cyclopropylmethyl)amino)-N-(4-morpholinopyrimidin-5-yl)pyrimidine-4-carboxamide], the IC50 with pTau is 1800 nM; at GSK3α, 22 nM; on GSK3β, 19 nM.
For `O=C(Nc1cnccc1OCC(F)(F)F)c1ccnc(NC2CC2)n1` [Example 130, 2-(Cyclopropylamino)-N-(4-(2,2,2-trifluoroethoxy)pyridin-3-yl)pyrimidine-4-carboxamide], the IC50 with pTau came out at 46 nM; on GSK3α it was 1.5 nM; on GSK3β (setting [1]), 1.6 nM.
As to `CC(C)OCCCNc1nccc(C(=O)Nc2cnccc2OCC(F)(F)F)n1` [Example 65, 2-((3-Isopropoxypropyl)amino)-N-(4-(2,2,2-trifluoroethoxy)pyridin-3-yl)pyrimidine-4-carboxamide], the results for the IC50 in the test with pTau, at GSK3α and at GSK3β (setting [1]) were 86 nM, 1.4 nM and 2 nM, respectively.
For the compound `O=C(Nc1cnccc1OCC(F)(F)F)c1ccnc(NC2CCCOC2)n1` (stereo not drawn) [Example 85, 2-((Tetrahydro-2H-pyran-3-yl)amino)-N-(4-(2,2,2-trifluoroethoxy)pyridin-3-yl)pyrimidine-4-carboxamide], the IC50 in the test with pTau was determined as 17 nM; at GSK3α, 0.41 nM; on GSK3β (setting [1]), 0.51 nM.
On the same counts, the results for `Cn1ccc(Nc2nccc(C(=O)Nc3cnccc3-c3ccccc3)n2)n1` [Example 98, 2-((1-Methyl-1H-pyrazol-3-yl)amino)-N-(4-phenylpyridin-3-yl)pyrimidine-4-carboxamide] are 2600 nM, 37 nM and 46 nM.
Consider `O=C(Nc1cnccc1OCC(F)(F)F)c1ccnc(NC2CCCCC2)n1` [Example 117, 2-(Cyclohexylamino)-N-(4-(2,2,2-trifluoroethoxy)pyridin-3-yl)pyrimidine-4-carboxamide], for which the results for the IC50 with pTau, on GSK3α and on GSK3β (setting [1]) were 28 nM, 0.21 nM and 0.25 nM, respectively.
In the case of `Cc1cc(C#N)ccc1Nc1nccc(C(=O)Nc2cnccc2-c2ccccc2)n1` [Example 21, 2-((4-Cyano-2-methylphenyl)amino)-N-(4-phenylpyridin-3-yl)pyrimidine-4-carboxamide], the IC50 amounted to 97 nM in the test with pTau, 0.35 nM on GSK3α and 0.43 nM at GSK3β (setting [1]).
`O=C(Nc1cnccc1-c1ccccc1)c1ccnc(Nc2ccccc2)n1` [Example 4, 2-(Phenylamino)-N-(4-phenylpyridin-3-yl)pyrimidine-4-carboxamide]: the IC50 in the test on pTau was 104 nM; on GSK3α, 0.31 nM; on GSK3β (setting [1]) it was 0.43 nM.
For `O=C(Nc1cnccc1-c1ccc(F)cc1)c1ccnc(Nc2ccc(OC(F)F)nc2)n1` [Example 50, 2-((6-(Difluoromethoxy)pyridin-3-yl)amino)-N-(4-(4-fluorophenyl)pyridin-3-yl)pyrimidine-4-carboxamide], in that order: 180 nM, 1.5 nM and 4 nM.
On the same counts, the results for `Cn1cnc(Nc2nccc(C(=O)Nc3cnccc3-c3ccccc3)n2)c1` [Example 102, 2-((1-Methyl-1H-imidazol-4-yl)amino)-N-(4-phenylpyridin-3-yl)pyrimidine-4-carboxamide] are 10000 nM, 170 nM and 260 nM.
For the compound `O=C(Nc1cnccc1-c1ccccc1)c1ccnc(Nc2ccc(C(F)(F)F)cc2)n1` [Example 9, N-(4-Phenylpyridin-3-yl)-2-((4-(trifluoromethyl)phenyl)amino)pyrimidine-4-carboxamide], the half-inhibitory concentration (IC50) came out at 240 nM with pTau, 1.2 nM at GSK3α and 2 nM at GSK3β (setting [1]).
As for `Cc1cc(Nc2nccc(C(=O)Nc3cnccc3-c3ccccc3)n2)sn1` [Example 95, 2-((3-Methylisothiazol-5-yl)amino)-N-(4-phenylpyridin-3-yl)pyrimidine-4-carboxamide], the IC50 in the test on pTau was found to be 78 nM; at GSK3α, 0.7 nM; on GSK3β (setting [1]), 5.7 nM.
Take `Cc1cc(Nc2nccc(C(=O)Nc3cnccc3-c3ccccc3)n2)c(C)nc1OC(F)F` [Example 41, 2-((6-(Difluoromethoxy)-2,5-dimethylpyridin-3-yl)amino)-I-(4-phenylpyridin-3-yl)pyrimidine-4-carboxamide]: the IC50 with pTau turned out to be 290 nM; on GSK3α it was 1.9 nM; at GSK3β (setting [1]) it was 1.6 nM.
On the same counts, the results for `O=C(Nc1cncnc1OCC(F)(F)F)c1ccnc(Nc2ccc(OC(F)F)nc2)n1` [Example 73, 2-((6-(Difluoromethoxy)pyridin-3-yl)amino)-N-(4-(2,2,2-trifluoroethoxy)pyrimidin-5-yl)pyrimidine-4-carboxamide] are 22 nM, 0.18 nM and 0.26 nM.
With `O=C(Nc1cnccc1-c1ccccc1)c1ccnc(Nc2ccc(C(F)(F)F)cc2Cl)n1` [Example 20, 2-((2-Chloro-4-(trifluoromethyl)phenyl)amino)-N-(4-phenylpyridin-3-yl)pyrimidine-4-carboxamide], the IC50 is 5700 nM with pTau, 16 nM on GSK3α and 24 nM at GSK3β (setting [1]).
For `O=C(Nc1cnccc1-c1ccccc1)c1ccnc(NC2CCCCC2)n1` [Example 156, 2-(Cyclohexylamino)-N-(4-phenylpyridin-3-yl)pyrimidine-4-carboxamide], the IC50 in the test with pTau is 350 nM; at GSK3α, 1.3 nM; at GSK3β it was 2.1 nM.
As to `CNc1nccc(C(=O)Nc2cnccc2OCC(F)(F)F)n1` [Example 135, 2-(Methylamino)-N-(4-(2,2,2-trifluoroethoxy)pyridin-3-yl)pyrimidine-4-carboxamide], the results for the IC50 in the test with pTau, at GSK3α and at GSK3β (setting [1]) were 400 nM, 14 nM and 3.6 nM, respectively.
Regarding `O=C(Nc1cncnc1)c1ccnc(Nc2cccc(-c3ccccc3)c2)n1` [Example 194, 2-([1,1′-Biphenyl]-3-ylamino)-N-(pyrimidin-5-yl)pyrimidine-4-carboxamide], the IC50 was found to be 390 nM with pTau, 2.9 nM on GSK3α and 4.4 nM on GSK3β (setting [1]).
With `CC(C)(C)CNc1nccc(C(=O)Nc2cnc(F)cc2N2CCOCC2)n1` [Example 173], the concentration for half-maximal inhibition (IC50) in the test with pTau amounted to 69 nM; on GSK3α it was 0.49 nM; on GSK3β, 1.1 nM.
With `O=C(Nc1cnccc1OCC(F)(F)F)c1ccnc(Nc2ccc(OC(F)F)nc2)n1` [Example 63, 2-((6-(Difluoromethoxy)pyridin-3-yl)amino)-N-(4-(2,2,2-trifluoroethoxy)pyridin-3-yl)pyrimidine-4-carboxamide], the results for the IC50 with pTau, on GSK3α and on GSK3β (setting [1]) were 3 nM, 0.13 nM and 0.18 nM, respectively.
On the same counts, the results for `CN(C)c1ccc(Nc2nccc(C(=O)Nc3cnccc3-c3ccccc3)n2)cn1` [Example 93, 2-((6-(Dimethylamino)pyridin-3-yl)amino)-N-(4-phenylpyridin-3-yl)pyrimidine-4-carboxamide] are 390 nM, 3.1 nM and 4.3 nM.
As to `N#Cc1ccc(Nc2nccc(C(=O)Nc3cnccc3-c3ccccc3)n2)cc1Cl` [Example 27, 2-((3-Chloro-4-cyanophenyl)amino)-N-(4-phenylpyridin-3-yl)pyrimidine-4-carboxamide], the concentration for half-maximal inhibition (IC50) with pTau was 20 nM; at GSK3α, 0.16 nM; at GSK3β, 0.24 nM.
For the compound `O=C(Nc1cnc(F)cc1OCC(F)(F)F)c1ccnc(Nc2ccc(C(F)(F)F)cc2)n1` [Example 109, N-(6-Fluoro-4-(2,2,2-trifluoroethoxy)pyridin-3-yl)-2-((4-(trifluoromethyl)phenyl)amino) pyrimidine-4-carboxamide], the 50% inhibitory concentration (IC50) stood at 44 nM with pTau, 0.43 nM at GSK3α and 0.88 nM at GSK3β (setting [1]).
`O=C(Nc1cnc(F)cc1OCC(F)(F)F)c1ccnc(Nc2ccc(Cl)cc2)n1` [Example 110, 2-((4-Chlorophenyl)amino)-N-(6-fluoro-4-(2,2,2-trifluoroethoxy)pyridin-3-yl)pyrimidine-4-carboxamide]: the IC50 with pTau is 65 nM; at GSK3α it was 0.68 nM; at GSK3β (setting [1]) it was 1.1 nM.
